Measured values taken from patent publication US20240400596A1, “PLATINUM-BASED PHOTOINITIATOR AND PHOTOCROSSLINKER, THEIR USE FOR ADDUCT FORMATION” (City University of Hong Kong, priority 2023, published 2024).

Experiments:
[1] = Dark stability of cisPt(IV)-1, by HPLC; type: physicochemical; details: in the dark for about 30 min, free or mixed with radical spin traps
Experimental: 1 mM cisPt(IV)-1 (Pt(IV) complex of Formula (IIa)) and cisplatin in water was mixed with 1 or 10 mM DMPO or TEMPO. The mixed solution was irradiated with UV or kept in the dark for 10 min. The solution was analyzed by HPLC. The Pt(I) adduct products were characterized by ESI-HRMS, and the acetate radical adduct was separated and characterized by proton NMR. For the study of photolysis rate, the solution was irradiated with UV (365 nm, 9.8 mW/cm^2) for 0.5, 1, 2, 3, 4, 5 and 10 min, with or without the radical spin trap and analyzed by HPLC. For the study of dark stability, the solution was incubated at room temperature in the dark for 30 min before examined by HPLC.

[2] = Photolysis of Pt complexes in water under UV, by RP-HPLC; type: physicochemical; details: 1 mM in water, 365 nm, 9.8 mW/cm^2, 10 min
Experimental: The photolysis of Pt complexes in test tubes was examined by reversed-phase high performance liquid chromatography (RP-HPLC). 1 mM Pt complexes were dissolved in water. Then the mixed solution was irradiated with UV light (365 nm, 9.8 mW/cm^2) for 10 min at room temperature, and the solution was examined by HPLC. The percentage of remained Pt complexes was obtained from the ratio of the peak area of Pt complexes upon irradiation to that of the intact Pt complexes.

Row | SMILES | stability in the dark [1] | percentage of intact Pt complex remaining upon irradiation [2]
1 | CC(=O)[O][Pt]([NH2])([NH2])([Cl])([Cl])[O]C(C)=O [cisPt(IV)-1] | remained intact | 
2 | O=C1[O][Pt]2([NH][C@@H]3CCCC[C@H]3[NH]2)[O]C1=O [oxaliplatin] |  | 99%
